Test systems include HCT-15 colon; LOX IMVI melanoma; RXF 393 renal; SK-OV-3 ovarian; T-47D breast; TK-10 renal; UACC-257 melanoma; UO-31 renal.
Test in all cases: DTP human tumour cell line panel, 48 h

Structures are written as SMILES.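 Five compound concentrations were applied to cells in 96-well plates for 48 hours; endpoints were derived by simple linear interpolation of the resulting dose-response curve. Here, GI50 denotes the concentration required for 50% inhibition of growth. The concentration for full growth arrest is given as TGI.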

The results in this text go back to PubChem BioAssay (NCI).

Consider `CC(=O)OC[C@]12CC[C@@H](C(=O)CBr)[C@@H]1[C@H]1CC[C@@H]3[C@@]4(C)CCCNC(C)(C)[C@@H]4CC[C@@]3(C)[C@]1(C)CC2`, for which the GI50 in the assay on HCT-15 colon was 1.65 µM; in the assay on LOX IMVI melanoma, 1.76 µM; with RXF 393 renal, 1.83 µM; with SK-OV-3 ovarian it was 12.6 µM; in the assay with T-47D breast it was 2.31 µM; in the assay on TK-10 renal it was 2.93 µM. Moreover, the values for the GI50 in the assay on UACC-257 melanoma and with UO-31 renal were 9.2 µM and 1.71 µM, respectively. Further, the TGI was 3.52 µM in the assay with HCT-15 colon; 3.31 µM in the assay on LOX IMVI melanoma; 3.64 µM in the assay with RXF 393 renal; 26.1 µM in the assay on SK-OV-3 ovarian; 6.92 µM in the assay on T-47D breast; 11.6 µM in the assay on TK-10 renal. Also, the results for the concentration for total growth inhibition (TGI) in the assay with UACC-257 melanoma and in the assay with UO-31 renal were 23.1 µM and 4.04 µM, respectively.
With `NC(=O)c1ccc(I)c(N=O)c1`, the GI50 was 30 µM with HCT-15 colon; 16.7 µM in the assay with LOX IMVI melanoma; 28.7 µM in the assay with RXF 393 renal; above 100 µM with SK-OV-3 ovarian; 32.3 µM in the assay with T-47D breast; 34.9 µM with TK-10 renal. In addition, the values for the GI50 with UACC-257 melanoma and in the assay on UO-31 renal were 35.3 µM and 19.9 µM, respectively. Moreover, the TGI was above 100 µM in the assay with HCT-15 colon; 31.8 µM with LOX IMVI melanoma; 66 µM with RXF 393 renal; above 100 µM with SK-OV-3 ovarian; 87.8 µM in the assay with T-47D breast; above 100 µM with TK-10 renal. The concentration for total growth inhibition (TGI) in the assay with UACC-257 melanoma was above 100 µM; in the assay with UO-31 renal, 57.8 µM.
Turning to `Cc1ccc(C(CC(=O)c2ccccc2)C2C(=O)NC(=O)NC2=O)cc1` (stereo unspecified), the GI50 with HCT-15 colon, in the assay with LOX IMVI melanoma, in the assay on RXF 393 renal, in the assay on SK-OV-3 ovarian, with T-47D breast and in the assay on TK-10 renal was above 100 µM throughout. Besides, the GI50 with UACC-257 melanoma and with UO-31 renal was above 100 µM each time. In addition, the TGI in the assay with HCT-15 colon, in the assay on LOX IMVI melanoma, in the assay on RXF 393 renal, in the assay with SK-OV-3 ovarian, in the assay on T-47D breast and in the assay on TK-10 renal was above 100 µM throughout. The TGI in the assay with UACC-257 melanoma and in the assay on UO-31 renal was above 100 µM each time.
Take `COc1ccc2c(=O)cc(-c3ccncc3)oc2c1OC`: the total growth inhibition concentration (TGI) in the assay on HCT-15 colon was above 100 µM; in the assay with LOX IMVI melanoma, above 100 µM; in the assay with RXF 393 renal it was 69.6 µM; in the assay on SK-OV-3 ovarian it was above 100 µM; with T-47D breast, above 100 µM; in the assay on TK-10 renal, above 100 µM. Also, the total growth inhibition concentration (TGI) with UACC-257 melanoma is above 100 µM; in the assay with UO-31 renal, 67.6 µM.
As for `O=c1oc(Cl)c(Cl)c2ccccc12`, the GI50 is 23.1 µM with HCT-15 colon; 17.6 µM in the assay with LOX IMVI melanoma; 24.8 µM in the assay on RXF 393 renal; 59.8 µM in the assay with SK-OV-3 ovarian; 40.6 µM in the assay on T-47D breast; 82.5 µM in the assay with TK-10 renal. Further, the GI50 in the assay with UACC-257 melanoma was 93.8 µM; with UO-31 renal it was 22.4 µM. In addition, the TGI in the assay with HCT-15 colon was 61.3 µM; with LOX IMVI melanoma, 51.9 µM; in the assay with RXF 393 renal, 52.2 µM; with SK-OV-3 ovarian it was above 100 µM; in the assay on T-47D breast, above 100 µM; in the assay on TK-10 renal, above 100 µM. Besides, the TGI is above 100 µM with UACC-257 melanoma and 47.9 µM in the assay on UO-31 renal.
As for `CCCCC[C@H]1C/C=C2/C(=O)C=C[C@@H]2C/C=C\CCCC(=O)O[C@@H](CCCCC)C/C=C2/C(=O)C=C[C@@H]2C/C=C\CCCC(=O)O1`, the GI50 with HCT-15 colon is 0.428 µM; with LOX IMVI melanoma, 0.0695 µM; with RXF 393 renal, 0.193 µM; with SK-OV-3 ovarian, 0.824 µM; in the assay on T-47D breast it was 0.236 µM; in the assay on TK-10 renal, 0.582 µM. The GI50 with UACC-257 melanoma is 0.531 µM; in the assay with UO-31 renal, 0.394 µM. For the same compound, the TGI was determined as 1.01 µM in the assay with HCT-15 colon; 0.217 µM in the assay with LOX IMVI melanoma; 0.526 µM with RXF 393 renal; 2.39 µM with SK-OV-3 ovarian; 0.819 µM in the assay on T-47D breast; 1.31 µM in the assay with TK-10 renal. Also, the TGI with UACC-257 melanoma was 1.3 µM; in the assay on UO-31 renal, 0.75 µM.
In the case of `Cc1cc(NCCN(C(C)C)C(C)C)nc(/N=C(\N)Nc2ccc(Cl)c(C(F)(F)F)c2)n1`, the GI50 is 0.276 µM in the assay on HCT-15 colon; 0.193 µM with LOX IMVI melanoma; 0.249 µM in the assay with RXF 393 renal; 1.26 µM in the assay with SK-OV-3 ovarian; 0.183 µM in the assay on T-47D breast; 0.297 µM with TK-10 renal. Moreover, the GI50 was 0.187 µM in the assay with UACC-257 melanoma and 0.201 µM with UO-31 renal. For the same compound, the TGI in the assay on HCT-15 colon was 0.913 µM; with LOX IMVI melanoma, 0.365 µM; with RXF 393 renal, 0.75 µM; with SK-OV-3 ovarian it was 2.55 µM; in the assay with T-47D breast, 0.361 µM; with TK-10 renal it was 1.04 µM. The TGI was 0.337 µM in the assay with UACC-257 melanoma and 0.604 µM with UO-31 renal.
For the compound `CNC(=O)c1cccc2cc(Oc3ccnc4cc(OCC5(N)CC5)c(OC)cc34)ccc12`, the GI50 in the assay with HCT-15 colon is 6.56 µM; in the assay on LOX IMVI melanoma it was 3.89 µM; in the assay with RXF 393 renal it was 4.42 µM; with SK-OV-3 ovarian, 12.1 µM; with T-47D breast it was 17.8 µM; with TK-10 renal it was 12.9 µM. Moreover, the GI50 with UACC-257 melanoma is 16.5 µM; with UO-31 renal it was 2.57 µM. For the same compound, the TGI is 20.2 µM in the assay on HCT-15 colon; 17.1 µM with LOX IMVI melanoma; 20.4 µM in the assay on RXF 393 renal; 26.3 µM with SK-OV-3 ovarian; 39.2 µM in the assay with T-47D breast; 26.6 µM in the assay with TK-10 renal. Further, the TGI in the assay with UACC-257 melanoma amounted to 32.2 µM; in the assay on UO-31 renal, 8.16 µM.
As for `COc1cc2c3c(n(CCCCN)c(=O)c2cc1OC)-c1cc2c(cc1C3=O)OCO2`, the GI50 was 0.805 µM in the assay on HCT-15 colon; 0.107 µM in the assay with LOX IMVI melanoma; 1.47 µM in the assay with RXF 393 renal; 1.23 µM in the assay with SK-OV-3 ovarian; 1.22 µM in the assay on T-47D breast; 3.84 µM in the assay on TK-10 renal. Besides, the GI50 in the assay with UACC-257 melanoma is 3.35 µM; with UO-31 renal it was 2.97 µM. The TGI with HCT-15 colon came out at 9.81 µM; in the assay with LOX IMVI melanoma it was 0.529 µM; in the assay on RXF 393 renal, 5.72 µM; in the assay with SK-OV-3 ovarian it was 9.41 µM; in the assay on T-47D breast it was 10.3 µM; in the assay on TK-10 renal, 8.48 µM. Also, the TGI in the assay with UACC-257 melanoma is 25 µM; with UO-31 renal, 12 µM.

As usually defined, the GI50 is the concentration giving 50% growth inhibition. One may read the TGI as the concentration at which net growth stops.
